The text below walks through data of article PMC3806465, “Discovery and Evaluation of Thiazinoquinones as Anti-Protozoal Agents” (Marine Drugs, 2013).

The test system of data set [1] is Trypanosoma brucei rhodesiense, STIB 900 strain, trypomastigotes stage. Briefly: In vitro activity against T. b. rhodesiense. Format: cell-based. The following applies: for IC50: Trypanosoma brucei, STIB 900, trypomastigotes, average of two independent assays, read-out: IC50 T. b. rhod. The protocol: (§1) The in vitro activities against the protozoan parasites T.b. rhodesiense, T. cruzi, L. donovani, and P. falciparum and cytotoxicity assessment against L6 cells were determined as reported elsewhere.

The subject of data set [2] is Trypanosoma cruzi, Tulahuen C4 strain, amastigotes stage. Kind of data set: In vitro activity against T. cruzi. Conditions: Trypanosoma cruzi, TULAHUEN, Tulahuen C4, amastigotes; average of two independent assays; read-out: IC50 T. cruzi. Format: cell-based. The protocol: as §1
The subject of data set [3] is Leishmania donovani, MHOM-ET-67/L82 strain, amastigote/axenic stage. Briefly: In vitro activity against L. donovani. The format is cell-based. Conditions: Leishmania donovani, MHOM-ET-67/L82, axenic amastigotes; average of two independent assays; read-out: IC50 L. don. How it is done: as §1
Data set [4] relates to Plasmodium falciparum, K1 strain, IEF stage. Kind of data set: In vitro activity against P. falciparum K1. The format is cell-based. Conditions: for IC50: Plasmodium falciparum, K1 dual drug resistant strain, IEF stage, average of two independent assays, read-out: IC50 P. falc. K1; for SI Pf: Selectivity index for P. falciparum = IC50 L6/IC50 Pf. The protocol:
as §1

Data set [5] deals with L6 rat skeletal myoblast cell line. Kind of data set: Cytotoxicity against L6 cells. Format: cell-based. Conditions: Rattus norvegicus, Myoblast, cytotoxicity, L6 rat skeletal myoblasts; average of two independent assays; read-out: IC50 L6. How it is done:
as §1

Data set [6] relates to GFP-transfected P. berghei strain ANKA. Kind of data set: In vivo anti-malarial efficacy in P. berghei infected mice. The arrangement: species or system NMRI mice. How it is done:
Furan carboxylic acid analogue 16 was selected for preliminary proof-of-principle in vivo evaluation in Plasmodium berghei infected mice. […] Switching to an oral dosing experiment (100 mg/kg once per day for 4 days) yielded a 47% reduction of parasitaemia. Although not considered significant, these levels of activity for both ip and po dosing clearly identifies heterocyclic dioxothiazinoquinone carboxylic acids to be a novel anti-malarial drug scaffold warranting further structure-activity relationship studies.
In vivo anti-malarial activity was assessed as previously described. Groups of three female NMRI mice (20–22 g) were intravenously infected with 2 × 10^7 parasitized erythrocytes on day 0 with GFP-transfected P. berghei strain ANKA [24]. Compounds were formulated in 100% DMSO, diluted 10-fold in distilled water and administered intraperitoneally in a volume of 10 ml kg^−1 on four consecutive days (4, 24, 48 and 72 h post infection). Control experiments used DMSO-H2O vehicle alone. Parasitemia was determined on day 4 post infection (24 h after last treatment) by FACS analysis. Activity was calculated as the difference between the mean per cent parasitaemia for the control (n = 5 mice) and treated groups expressed as a per cent relative to the control group. The survival of the animals was usually monitored up to 30 days: a compound was considered curative if the animal survived to day 30 after infection with no detectable parasites. In vivo efficacy studies in mice were conducted according to the rules and regulations for the protection of animal rights (“Tierschutzverordnung”) of the Swiss “Bundesamt für Veterinärwesen”. They were approved by the veterinary office of Canton Basel-Stadt, Switzerland.

For data set [7] the following is noted: in vivo, 150 mg/kg.

As to `O=C(O)c1cc2c(o1)C(=O)C1=C(C2=O)S(=O)(=O)CCN1` [Compound 16, 5,9-Dioxo-3,4,5,9-tetrahydro-2H-benzofuro[5,6-b][1,4]thiazine-7-carboxylic Acid 1,1-Dioxide], the IC50 (in general, the concentration needed to halve the response being measured) in data set [1] is 7.5 µM; in data set [2], greater than 300 µM; in data set [3], greater than 300 µM; in data set [4], 0.12 µM; in data set [5] it was 290 µM. Further, the “SI Pf” value in data set [4] turned out to be 2400. In data set [6] (ip 50 (mg/kg)/day for four days), this compound returned a reduction in parasitaemia of 85.7%. The compound further came in with a mean survival time in data set [6] (ip 50 (mg/kg)/day for four days, untreated control 4–6 days) of 9.6 days. The reduction of parasitaemia in data set [6] (oral 100 mg/kg once per day for 4 days) is on record as 47%. In data set [7], the ip acute toxicity entry was “no toxicity”.
For the compound `COCCNC(=O)c1ccc2c(n1)C(=O)C1=C(C2=O)S(=O)(=O)C=CN1` [Compound 8i, N-(2-Methoxyethyl)-5,10-dioxo-5,10-dihydro-4H-[1,4]thiazino[2,3-g] quinoline-7-carboxamide 1,1-Dioxide], the melting point (commonly the temperature, or range, at which the solid turns liquid) was 200 °C (dec.). Moreover, the 50% inhibitory concentration (IC50) in data set [1] was determined as 13 µM. Moreover, the IC50 in data set [2] amounted to 140 µM. Further, in data set [3], the IC50 worked out at 150 µM. Also, in data set [4], the IC50 was determined as 1.5 µM and the “SI Pf” value is reported as 67. The IC50 in data set [5] amounted to 99 µM.
For the compound `O=C(O)c1cc2c(s1)C(=O)C1=C(C2=O)S(=O)(=O)C=CN1` [Compound 12, 5,9-Dioxo-5,9-dihydro-4H-thieno[2′,3′:4,5]benzo[1,2-b][1,4]thiazine-7-carboxylic Acid 1,1-Dioxide], the melting point is 290 °C (dec.). Besides, the IC50 in data set [1] stood at 2.2 µM. Further, in data set [2], the IC50 came to 210 µM. Besides, the IC50 in data set [3] was greater than 290 µM. In data set [4], the IC50 amounted to 0.035 µM and the “SI Pf” value amounted to 4000. Further, the IC50 in data set [5] was 140 µM.
On to `O=C(NCCCc1ccccc1)c1ccc2c(n1)C(=O)C1=C(C2=O)S(=O)(=O)CCN1` [Compound 7f, N-(3-Phenylpropyl)-5,10-dioxo-3,4,5,10-tetrahydro-2H-[1,4]thiazino[2,3-g] quinoline-7-carboxamide 1,1-Dioxide], for which the melting point is 204 °C (dec.). The IC50 in data set [1] amounted to 2.4 µM. In data set [2], the IC50 is 27 µM. Besides, the IC50 in data set [3] is 47 µM. In data set [4], the IC50 worked out at 1.4 µM and the “SI Pf” value worked out at 10. The half-maximal inhibitory concentration (IC50) in data set [5] worked out at 13 µM.
With `CCCCCCCCNC(=O)c1ccc2c(n1)C(=O)C1=C(C2=O)S(=O)(=O)C=CN1` [Compound 8c, N-n-Octyl-5,10-dioxo-5,10-dihydro-4H-[1,4]thiazino[2,3-g]quinoline-7-carboxamide 1,1-Dioxide], the melting point is 280 °C (dec.). The IC50 in data set [1] was 2.4 µM. Further, in data set [2], the IC50 was 42 µM. Moreover, in data set [3], the IC50 came out at 53 µM. In addition, in data set [4], the IC50 came out at 0.98 µM and the “SI Pf” value was 6. The IC50 in data set [5] came to 6.5 µM.
Take `C#CCNC(=O)c1ccc2c(n1)C(=O)C1=C(C2=O)S(=O)(=O)CCN1` [Compound 7h, N-(Prop-2-yn-1-yl)-5,10-dioxo-3,4,5,10-tetrahydro-2H-[1,4]thiazino[2,3-g]quinoline-7-carboxamide 1,1-Dioxide]: the melting point is 280 °C (dec.). The IC50 in data set [1] was greater than 150 µM. The IC50 in data set [2] amounted to 53 µM. In data set [3], the IC50 is 170 µM. In data set [4], the IC50 amounted to 2.4 µM and the “SI Pf” value came out at 17. The IC50 in data set [5] turned out to be 41 µM.
For `CCCCCNC(=O)c1ccc2c(n1)C(=O)C1=C(C2=O)S(=O)(=O)CCN1` [Compound 7b, N-n-Pentyl-5,10-dioxo-3,4,5,10-tetrahydro-2H-[1,4]thiazino[2,3-g]quinoline-7-carboxamide 1,1-Dioxide], the melting point was 200 °C (dec.). Further, in data set [1], the IC50 was determined as 1.8 µM. For the same compound, the IC50 in data set [2] stood at 15 µM. In addition, the IC50 in data set [3] stood at 29 µM. In addition, in data set [4], the IC50 came to 0.62 µM and the “SI Pf” value is 37. In data set [5], the IC50 stood at 23 µM.
Regarding `O=C(NCCCc1ccccc1)c1ccc2c(n1)C(=O)C1=C(C2=O)S(=O)(=O)C=CN1` [Compound 8f, N-(3-Phenylpropyl)-5,10-dioxo-5,10-dihydro-4H-[1,4]thiazino[2,3-g]quinoline-7-carboxamide 1,1-Dioxide], the melting point was 230 °C (dec.). Moreover, in data set [1], the IC50 worked out at 5.9 µM. In addition, the IC50 in data set [2] stood at 59 µM. The IC50 in data set [3] was greater than 240 µM. For the same compound, in data set [4], the IC50 was determined as 1.2 µM and the “SI Pf” value is recorded as 5. Moreover, in data set [5], the IC50 worked out at 6.5 µM.
For `O=C(NCCc1ccccc1)c1ccc2c(n1)C(=O)C1=C(C2=O)S(=O)(=O)C=CN1` [Compound 8e, N-Phenethyl-5,10-dioxo-5,10-dihydro-4H-[1,4]thiazino[2,3-g]quinoline-7-carboxamide 1,1-Dioxide], the melting point was 290 °C (dec.). Also, the IC50 in data set [1] worked out at 0.67 µM. Further, the “SI (T. brucei rhodesiense)” value in data set [1] (selectivity towards T. brucei rhodesiense versus L6) is given as 78. The IC50 in data set [2] came out at 140 µM. Also, in data set [3], the IC50 amounted to 160 µM. Besides, in data set [4], the IC50 is 6.5 µM and the “SI Pf” value was found to be 8. In data set [5], the IC50 came out at 52 µM.
Take `CC(C)=CCC/C(C)=C/CNC(=O)c1ccc2c(n1)C(=O)C1=C(C2=O)S(=O)(=O)CCN1` [Compound 7g, (E)-N-(3,7-Dimethylocta-2,6-dien-1-yl)-5,10-dioxo-3,4,5,10-tetrahydro-2H-[1,4]thiazino [2,3-g]quinoline-7-carboxamide 1,1-Dioxide]: the melting point was 200 °C (dec.). The 50% inhibitory concentration (IC50) in data set [1] was 3.4 µM. For the same compound, the IC50 in data set [2] stood at 41 µM. Further, the IC50 in data set [3] turned out to be 83 µM. Besides, in data set [4], the IC50 was 1.6 µM and the “SI Pf” value is 15. Further, the IC50 in data set [5] amounted to 24 µM.
In the case of `CCCCNC(=O)c1ccc2c(n1)C(=O)C1=C(C2=O)S(=O)(=O)CCN1` [Compound 7a, N-n-Butyl-5,10-dioxo-3,4,5,10-tetrahydro-2H-[1,4]thiazino[2,3-g]quinoline-7-carboxamide 1,1-Dioxide], the melting point was 200 °C (dec.). For the same compound, in data set [1], the IC50 is 5.5 µM. Also, the IC50 in data set [2] worked out at 63 µM. Also, the IC50 in data set [3] is greater than 280 µM. For the same compound, in data set [4], the IC50 was 0.94 µM and the “SI Pf” value was 26. Further, in data set [5], the IC50 was determined as 24 µM.
Regarding `C#CCNC(=O)c1ccc2c(n1)C(=O)C1=C(C2=O)S(=O)(=O)C=CN1` [Compound 8h, N-(Prop-2-yn-1-yl)-5,10-dioxo-5,10-dihydro-4H-[1,4]thiazino[2,3-g]quinoline-7-carboxamide 1,1-Dioxide], the melting point is 230 °C (dec.). Besides, in data set [1], the IC50 came to 10 µM. Further, in data set [2], the IC50 was 150 µM. Further, the IC50 in data set [3] amounted to 230 µM. For the same compound, in data set [4], the IC50 came to 1.7 µM and the “SI Pf” value is 29. Moreover, the IC50 in data set [5] is 50 µM.
As to `CCCCCNC(=O)c1ccc2c(n1)C(=O)C1=C(C2=O)S(=O)(=O)C=CN1` [Compound 8b, N-n-Pentyl-5,10-dioxo-5,10-dihydro-4H-[1,4]thiazino[2,3-g]quinoline-7-carboxamide 1,1-Dioxide], the melting point is 280 °C (dec.). Also, the IC50 in data set [1] amounted to 3.6 µM. The IC50 in data set [2] is 48 µM. Also, in data set [3], the IC50 is greater than 270 µM. For the same compound, in data set [4], the IC50 was determined as 1.5 µM and the “SI Pf” value is 3. The IC50 in data set [5] is 4.8 µM.
For the compound `COC(=O)CNC(=O)c1ccc2c(n1)C(=O)C1=C(C2=O)S(=O)(=O)CCN1` [Compound 7j, Methyl 2-(1,1-Dioxido-5,10-dioxo-3,4,5,10-tetrahydro-2H-[1,4]thiazino[2,3-g]quinoline-7-carboxamido)acetate], the melting point was 200 °C (dec.). Also, the IC50 in data set [1] is 120 µM. Further, the IC50 in data set [2] was found to be 250 µM. The IC50 in data set [3] is greater than 260 µM. Moreover, in data set [4], the IC50 was determined as 3.4 µM and the “SI Pf” value came out at 31. In addition, the IC50 in data set [5] was 110 µM.
